Five molecules from patent publication US12534425B2, “Phenalkylamines and methods of treating mood disorders” (GILGAMESH PHARMACEUTICALS, INC., priority 2020, dated 2026) can be followed below.

A short description of data set [1]: Metabolic stability in cynomolgus monkey liver microsomes (CLM). Particulars: male, pooled liver microsomes, pH 7.4.
Another data set has as its system C57BL/6 mice. Nature of the data set: Head twitch response (HTR) in mice. It counts as in vivo. Particulars: for Average HTR (SEM): counted for 20 min; for ED50: Mus musculus, sc, Gaussian dose-response fit, read-out: HTR ED50 (95% CI); for maximal HTR effect: s.c., maximal effect over doses. The procedure: Animals. Adult male C57BL/6 mice, aged 8 weeks (body weight 20-25 g) were used in these experiments. Animals were housed under controlled temperatures and 12-hour light/dark cycles (lights on between 07:00-19:00 h), with ad libitum food and water. All efforts were made to minimize suffering.
Drugs and Drug Administration. Compound 1 was synthesized as described above. […] All compounds were used as the HCl salts, dissolved in a vehicle consisting of normal saline, and administered subcutaneously (s.c.) in a volume of 10 mL/kg. […] Group size was N=6 animals/group.
Procedure. Mice were administered one dose of a test drug (or vehicle) s.c. and immediately placed into a small open field for behavioral observation.
Statistical Analysis. The data points shown in Table 4 are the mean±standard error of the mean (SEM). Dose-response curves were fit and ED50s calculated using the Gaussian 2020 function in GraphPad Prism 9.

For data set [2], the target named is T1, 5-HT2A receptor (Homo sapiens (Human), UniProt P28223). Briefly: 5-HT2A receptor radioligand binding ([3H]ketanserin). Particulars: for Ki: 1 nM [3H]ketanserin, HEK293 stable cell line. The procedure:
Methods. Affinity of the test compounds for the 5-HT2A receptor was determined in radioligand binding experiments with [^3H]ketanserin by WuXi AppTec (Hong Kong) Limited, using methods adapted from the literature and under conditions described in Table 2.

Data set [3] deals with T1, 5-HT2A receptor. Nature of the data set: FLIPR Ca2+ flux agonist assay at 5-HT2A. Format: cell-based. The procedure: (§1) The functional activity of Compound 1 at several serotonin (5-HT) receptor subtypes (5-HT2A, 5-HT2B, and 5-HT1A) was determined in Ca^2+ flux assays, with the results summarized in Table 3.
(§2) Functional Assays at 5-HT2A, 5-HT2B, and 5-HT1A Receptors. Agonist activity at 5-HT2A, 5-HT2B, and 5-HT1A receptors was determined using a FLIPR Ca^2+ flux assay at WuXi AppTec (Hong Kong) Limited according to their standard protocols. Briefly, stably transfected cells expressing the receptor of interest (HEK293 for 5-HT2A and 5-HT2B; CHO cells for 5-HT1A) were grown and plated in a 384 well plate and incubated at 37° C. and 5% CO2 overnight. A solution of 250 mM probenecid in 1 mL FLIPR assay buffer was prepared fresh. This was combined with a fluorescent dye (Fluo-4 Direct™) to make a final assay concentration of 2.5 mM. Compounds were diluted 1:3.16 for 10 points and 750 nL was added to a 384 well compound plate using ECHO along with 30 μL assay buffer. The fluorescent dye was then added to the assay plate along with assay buffer to a final volume of 40 μL. The cell plate was incubated for 50 min at 37° C. and 5% CO2 and placed into the FLIPR Tetra along with the compound plate. 10 μL of references and compounds were then transferred from the compound plate into the cell plate and the fluorescent signal was read.

A further data set has as its target 5-HT1A receptor (Homo sapiens (Human), UniProt P08908). Briefly: FLIPR Ca2+ flux agonist assay at 5-HT1A. It counts as cell-based. The procedure: as §1, §2
The target in a further data set is 5-HT2B receptor (Homo sapiens (Human), UniProt P41595). Briefly: FLIPR Ca2+ flux agonist assay at 5-HT2B. Format: cell-based. The procedure:
as §1, §2
A general note: Calcium assays in cells follow changes in intracellular calcium, usually with a dye or a luminescent sensor.

Where [4] appears, read: Ca2+ flux, HEK293 cells, max dose.

Bounds are passed on as bounds.

Chain of 5-HT2B receptor (P41595 whole entry): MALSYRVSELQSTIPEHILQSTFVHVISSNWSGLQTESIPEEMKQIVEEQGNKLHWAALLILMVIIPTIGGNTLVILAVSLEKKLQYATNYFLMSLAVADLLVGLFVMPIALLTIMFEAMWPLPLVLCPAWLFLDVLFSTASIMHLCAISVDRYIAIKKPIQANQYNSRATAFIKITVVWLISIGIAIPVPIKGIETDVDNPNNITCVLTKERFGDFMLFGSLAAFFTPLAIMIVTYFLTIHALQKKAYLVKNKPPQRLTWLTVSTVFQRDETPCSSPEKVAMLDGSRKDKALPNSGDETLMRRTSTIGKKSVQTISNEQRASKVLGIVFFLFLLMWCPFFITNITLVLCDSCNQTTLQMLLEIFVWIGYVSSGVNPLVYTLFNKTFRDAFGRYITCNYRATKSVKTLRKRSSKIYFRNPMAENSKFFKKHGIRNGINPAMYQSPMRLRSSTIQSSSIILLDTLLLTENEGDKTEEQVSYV

On to `C=CCc1cc(OC)c(CCN)cc1OC` [Compound 1, 2-(4-allyl-2,5-dimethoxyphenyl)ethan-1-amine], for which, in data set [1], the half-life (commonly how long it takes for the measured level to halve) at 1 μM came to 0.705 h. Besides, the microsomal CLint – broadly, a measure of how fast metabolising enzymes remove a compound, apart from limits set by blood flow – at 1 μM in data set [1] came out at 32.8 µL/min/mg. The “Average HTR (SEM)” value is 8.8 (0.79) with C57BL/6 mice (0.1 mg/kg s.c.); 13.3 (0.49) in the data set on C57BL/6 mice (0.316 mg/kg s.c.); 23.0 (1.21) in the data set on C57BL/6 mice (1 mg/kg s.c.); 28.8 (1.58) with C57BL/6 mice (3.16 mg/kg s.c.); 24.3 (2.04) in the data set with C57BL/6 mice (10 mg/kg s.c.). For the same molecule, the ED50 (usually the dose at which the effect has come halfway, by size or by number of responders) in the data set with C57BL/6 mice turned out to be 0.28 mg/kg. For the same molecule, in the data set with C57BL/6 mice, the “maximal HTR effect” value is 28.8 head twitches/20 min. Besides, the Ki (usually the dissociation constant of the complex between target and ligand, obtained from inhibition or displacement) at 5-HT2A receptor [2] turned out to be 90.4 nM. Moreover, the “binding affinity at the 5-HT2A receptor (in words)” value at 5-HT2A receptor [2] (compared to closely related compounds) is “reduced binding affinity”. For the same molecule, the EC50 (commonly the concentration giving half of the maximal effect) is 2.15 nM on 5-HT2A receptor [3], over 100000 nM on 5-HT1A receptor and 77.7 nM at 5-HT2B receptor. For the same molecule, the “selectivity among 5-HT receptors (in words)” value at 5-HT2A receptor [3] (5-HT2A over 5-HT2B and 5-HT1A, Ca2+ flux) is “selective for the 5-HT2A receptor over the 5-HT2B and 5-HT1A receptors”. Also, the “agonist activity at the 5-HT2A receptor (in words)” value at 5-HT2A receptor [3] (Ca2+ flux) is “potent and highly efficacious agonist”. For the same molecule, the “5-HT2A % Act @ Max Dose” value at 5-HT2A receptor [3] (setting [4]) came to 110.99%. The “5-HT1A % Act @ Max Dose” value on 5-HT1A receptor (Ca2+ flux, CHO cells, max dose) is on record as 13.25%. The “5-HT2B % Act @ Max Dose” value on 5-HT2B receptor (setting [4]) was 74.87%.
In data set [1], `COc1cc(CCN)c(OC)cc1Br` [Compound 2C-B] displayed a half-life at 1 μM of 1.25 h and a microsomal CLint at 1 μM of 18.4 µL/min/mg.
In data set [1], `CCc1cc(OC)c(CCN)cc1OC` [Compound 2C-E] registered a half-life at 1 μM of 1.31 h and a microsomal CLint at 1 μM of 17.6 µL/min/mg. The molecule also came in with a Ki on 5-HT2A receptor [2] of 16.7 nM.
Take `COc1cc(C(F)(F)F)c(OC)cc1CCN` [Compound 2C-TFM, 2,5-dimethoxy-4-(trifluoromethyl)phenethylamine]: the “Average HTR (SEM)” value in the data set on C57BL/6 mice (0.316 mg/kg s.c.) is listed as 6.5 (0.89); in the data set with C57BL/6 mice (1 mg/kg s.c.), 19.2 (2.47); with C57BL/6 mice (3.16 mg/kg s.c.), 19.2 (2.37); with C57BL/6 mice (10 mg/kg s.c.), 17.2 (1.62); in the data set with C57BL/6 mice (31.6 mg/kg s.c.), 9.3 (1.12). Moreover, the ED50 in the data set on C57BL/6 mice turned out to be 0.43 mg/kg. In the data set on C57BL/6 mice, the “maximal HTR effect” value came out at 19.2 head twitches/20 min. At 5-HT2A receptor [2], this molecule showed a Ki of 15.8 nM.
On to `COc1cc(CC(C)N)c(OC)cc1I` (stereo not drawn) [DOI, 4-iodo-2,5-dimethoxyamphetamine], for which the “Average HTR (SEM)” value in the data set with C57BL/6 mice (0.1 mg/kg s.c.) is on record as 5.5 (0.85); in the data set with C57BL/6 mice (0.316 mg/kg s.c.), 13.0 (2.07); in the data set with C57BL/6 mice (1 mg/kg s.c.), 29.3 (2.29); in the data set with C57BL/6 mice (3.16 mg/kg s.c.) it was 35.6 (3.37); in the data set with C57BL/6 mice (10 mg/kg s.c.), 22.7 (1.52). Besides, the ED50 in the data set on C57BL/6 mice was 0.43 mg/kg. Besides, the “maximal HTR effect” value in the data set with C57BL/6 mice is recorded as 35.6 head twitches/20 min.
